Experimental data published in patent US20110224208A1, “NOVEL INHIBITORS OF FLAVIVIRUS REPLICATION” (KATHOLIEKE UNIVERSITEIT LEUVEN, K.U. LEUVEN R&D, priority 2008, published 2011).
Converted amounts (≈) assume the structure as drawn.

Tests used:
[1] = test system: HCV replicon I389luc-ubi-neo/NS3-3'/5.1; assay: Anti-HCV replicon assay (luciferase activity) in Huh-5-2 cells; format: cell-based, Hepatitis C virus; conditions: concentration required to inhibit luciferase activity in the replicon system by 50%
Outline: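 Huh-5-2 cells carrying the luciferase HCV replicon, seeded 24 h, then exposed to serial compound dilutions without G418 for 72 h at 37° C, 5% CO2. Replication read as luciferase luminescence, expressed as percentage of untreated cultures; culture density measured in parallel by MTS.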

[2] = Proliferation of exponentially growing Huh-5-2 cells (MTS method); conditions: human, CC50, concentration required to inhibit the proliferation of exponentially growing Huh-5-2 cells by 50%; Table 2
Experimental: Cells were seeded at a density of 7000 cells per well in 96 well View Plate™ (Packard) in medium containing the same components as described above, except for G418. Cells were allowed to adhere and proliferate for 24 hr. At that time, culture medium was removed and serial dilutions of the test compounds were added in culture medium lacking G418. Interferon alfa 2a (500 IU) was included as a positive control. Plates were further incubated at 37° C. and 5% CO2 for 72 hours. Replication of the HCV replicon in Huh-5 cells results in luciferase activity in the cells. Luciferase activity is measured by adding 50 μl of 1×Glo-lysis buffer (Promega) for 15 minutes followed by 50 ul of the Steady-Glo Luciferase assay reagent (Promega). Luciferase activity is measured with a luminometer and the signal in each individual well is expressed as a percentage of the untreated cultures. […] Instead the density of the culture is measured by means of the MTS method (Promega).

[3] = Hepatitis C virus, Huh-5-2, 72 h

Compound	IC50 [1, 3]	CC50 at 72 h [2]	IC50 ([1]; 72 hours)
COCCN1C(=O)c2cc(OC)ccc2C(C(=O)Nc2cccc(OC)c2)C1c1cccs1 (stereo not drawn) [C50, 7-Methoxy-2-(2-methoxyethyl)-N-(3-methoxyphenyl)-1-oxo-3-(thiophen-2-yl)-1,2,3,4-tetrahydroisoquinoline-4-carboxamide]	0.7 µg/mL (≈ 1.5 µM)	76.4 µg/mL (≈ 164 µM)	
COCCN1C(=O)c2ccccc2C(C(=O)Nc2cccc(OC)c2)C1c1cccnc1 (stereo not drawn) [C53, 2-(2-Methoxyethyl)-N-(3-methoxyphenyl)-1-oxo-3-(pyridin-3-yl)-1,2,3,4-tetrahydroisoquinoline-4-carboxamide]	52.9 µg/mL (≈ 123 µM)	80.8 µg/mL (≈ 187 µM)	
COCCN1C(=O)c2ccccc2C(C(=O)Nc2cccc(OC)c2)C1C(C)(C)C (stereo not drawn) [C57, 3-tert-Butyl-2-(2-methoxyethyl)-N-(3-methoxyphenyl)-1-oxo-1,2,3,4-tetrahydroisoquinoline-4-carboxamide]	39.5 µg/mL (≈ 96.1 µM)	76.2 µg/mL (≈ 186 µM)	
CCOc1cccc(NC(=O)C2c3ccccc3C(=O)N(CCOC)C2c2cccs2)c1 (stereo not drawn) [C59, N-(3-ethoxyphenyl)-2-(2-methoxyethyl)-1-oxo-3-(thiophen-2-yl)-1,2,3,4-tetrahydroisoquinoline-4-carboxamide]	0.3 µg/mL (≈ 0.666 µM)	88.1 µg/mL (≈ 196 µM)	
COc1cccc(NC(=O)C2c3ccccc3C(=O)N(CC(F)(F)F)C2c2cccs2)c1 (stereo not drawn) [C62, N-(3-methoxyphenyl)-1-oxo-3-(thiophen-2-yl)-2-(2,2,2-trifluoroethyl)-1,2,3,4-tetrahydroisoquinoline-4-carboxamide]	8.81 µg/mL (≈ 19.1 µM)	16.4 µg/mL (≈ 35.5 µM)	
COc1cccc(NC(=O)C2c3ccccc3C(=O)N(CCCN3CCOCC3)C2c2cccs2)c1 (stereo not drawn) [C64, N-(3-methoxyphenyl)-2-(3-morpholinopropyl)-1-oxo-3-(thiophen-2-yl)-1,2,3,4-tetrahydroisoquinoline-4-carboxamide]	23.9 µg/mL (≈ 47.2 µM)	47.8 µg/mL (≈ 94.5 µM)	
CCOCCN1C(=O)c2ccccc2C(C(=O)Nc2cccc(OC)c2)C1c1cccs1 (stereo not drawn) [C65, 2-(2-Ethoxyethyl)-N-(3-methoxyphenyl)-1-oxo-3-(thiophen-2-yl)-1,2,3,4-tetrahydroisoquinoline-4-carboxamide]	1.76 µg/mL (≈ 3.91 µM)	90.2 µg/mL (≈ 200 µM)	
COc1cccc(NC(=O)C2c3ccccc3C(=O)N(CCOC(C)C)C2c2cccs2)c1 (stereo not drawn) [C66, 2-(2-Isopropoxyethyl)-N-(3-methoxyphenyl)-1-oxo-3-(thiophen-2-yl)-1,2,3,4-tetrahydroisoquinoline-4-carboxamide]	1.99 µg/mL (≈ 4.28 µM)	39.2 µg/mL (≈ 84.4 µM)	
COCCN1C(=O)c2ccccc2C(C(=O)NCc2cccc3ccccc23)C1c1cccs1 (stereo not drawn) [C72, 2-(2-methoxyethyl)-N-(naphthalen-1-ylmethyl)-1-oxo-3-(thiophen-2-yl)-1,2,3,4-tetrahydroisoquinoline-4-carboxamide]	35.8 µg/mL (≈ 76.1 µM)	71.2 µg/mL (≈ 151 µM)	
COCCN1C(=O)c2ccccc2C(C(=O)Nc2ccc3scnc3c2)C1c1cccs1 (stereo not drawn) [C81, N-(benzo[d]thiazol-5-yl)-2-(2-methoxyethyl)-1-oxo-3-(thiophen-2-yl)-1,2,3,4-tetrahydroisoquinoline-4-carboxamide]		65 µg/mL (≈ 140 µM)	0.16 µg/mL (≈ 0.345 µM)
COCCN1C(=O)c2ccccc2C(C(=O)Nc2cccc(OC)c2)C1CSC (stereo not drawn) [C82, 2-(2-methoxyethyl)-N-(3-methoxyphenyl)-3-(methylthiomethyl)-1-oxo-1,2,3,4-tetrahydroisoquinoline-4-carboxamide]	12 µg/mL (≈ 28.9 µM)	72 µg/mL (≈ 174 µM)	
C#CC1C(C(=O)Nc2cccc(OC)c2)c2ccccc2C(=O)N1CCOC (stereo not drawn) [C83, 3-ethynyl-2-(2-methoxyethyl)-N-(3-methoxyphenyl)-1-oxo-1,2,3,4-tetrahydroisoquinoline-4-carboxamide]	0.4 µg/mL (≈ 1.06 µM)	70 µg/mL (≈ 185 µM)	
COCCN1C(=O)c2ccccc2C(C(=O)Nc2ccc(C)cc2)C1c1cccs1 (stereo not drawn) [C86, 2-(2-methoxyethyl)-1-oxo-3-(thiophen-2-yl)-N-p-tolyl-1,2,3,4-tetrahydroisoquinoline-4-carboxamide]	0.25 µg/mL (≈ 0.594 µM)	75 µg/mL (≈ 178 µM)	
COCCN1C(=O)c2ccccc2C(C(=O)Nc2ccc(F)c(F)c2)C1c1cccs1 (stereo not drawn) [C88, N-(3,4-difluorophenyl)-2-(2-methoxyethyl)-1-oxo-3-(thiophen-2-yl)-1,2,3,4-tetrahydroisoquinoline-4-carboxamide]	2.7 µg/mL (≈ 6.1 µM)	60 µg/mL (≈ 136 µM)	
COCCN1C(=O)c2ccccc2C(C(=O)Nc2cccc(Cc3ccccc3)c2)C1c1cccs1 (stereo not drawn) [C89, N-(3-benzylphenyl)-2-(2-methoxyethyl)-1-oxo-3-(thiophen-2-yl)-1,2,3,4-tetrahydroisoquinoline-4-carboxamide]	0.11 µg/mL (≈ 0.221 µM)	0.62 µg/mL (≈ 1.25 µM)	
COCCN1C(=O)c2c(ccc(C)c2F)C(C(=O)Nc2cccc(OC)c2)C1c1cccs1 (stereo not drawn) [C93, 8-fluoro-2-(2-methoxyethyl)-N-(3-methoxyphenyl)-7-methyl-1-oxo-3-(thiophen-2-yl)-1,2,3,4-tetrahydroisoquinoline-4-carboxamide]	0.17 µg/mL (≈ 0.363 µM)	32.9 µg/mL (≈ 70.2 µM)	
COCCN1C(=O)c2ccccc2C(C(=O)Nc2ccc(F)cc2)C1c1cccs1 (stereo not drawn) [C95, N-(4-fluorophenyl)-2-(2-methoxyethyl)-1-oxo-3-(thiophen-2-yl)-1,2,3,4-tetrahydroisoquinoline-4-carboxamide]	2.21 µg/mL (≈ 5.21 µM)	76.3 µg/mL (≈ 180 µM)	
COCCN1C(=O)c2ccccc2C(C(=O)Nc2cccc(OC)c2)C1CC1CCOCC1 (stereo not drawn) [C97, 2-(2-methoxyethyl)-N-(3-methoxyphenyl)-1-oxo-3-((tetrahydro-2H-pyran-4-yl)methyl)-1,2,3,4-tetrahydroisoquinoline-4-carboxamide]	51.6 µg/mL (≈ 114 µM)	80 µg/mL (≈ 177 µM)	
COCCN1C(=O)c2ccccc2C(C(=O)Nc2cccc(OC)c2)C1c1csc(C)n1 (stereo not drawn) [C98, 2-(2-methoxyethyl)-N-(3-methoxyphenyl)-3-(2-methylthiazol-4-yl)-1-oxo-1,2,3,4-tetrahydroisoquinoline-4-carboxamide]	50.3 µg/mL (≈ 111 µM)	80.9 µg/mL (≈ 179 µM)	
COCCN1C(=O)c2ccccc2C(C(=O)Nc2cccc(OC)c2)C1c1cc(C)nn1C (stereo not drawn) [C100, 3-(1,3-dimethyl-1H-pyrazol-5-yl)-2-(2-methoxyethyl)-N-(3-methoxyphenyl)-1-oxo-1,2,3,4-tetrahydroisoquinoline-4-carboxamide]	56.8 µg/mL (≈ 127 µM)	86.7 µg/mL (≈ 193 µM)	
COCCN1C(=O)c2ccccc2C(C(=O)Nc2cccc(OC)c2)C1c1nccs1 (stereo not drawn) [C102, 2-(2-methoxyethyl)-N-(3-methoxyphenyl)-1-oxo-3-(thiazol-2-yl)-1,2,3,4-tetrahydroisoquinoline-4-carboxamide]	26.8 µg/mL (≈ 61.3 µM)	72.8 µg/mL (≈ 166 µM)	
COCCN1C(=O)c2ccccc2C(C(=O)Nc2cccc(OC)c2)C1c1cc(C)on1 (stereo not drawn) [C103, 2-(2-methoxyethyl)-N-(3-methoxyphenyl)-3-(5-methylisoxazol-3-yl)-1-oxo-1,2,3,4-tetrahydroisoquinoline-4-carboxamide]	40.4 µg/mL (≈ 92.7 µM)	75.2 µg/mL (≈ 173 µM)	
COCCN1C(=O)c2ccccc2C(C(=O)Nc2ccc(N3CCCCC3)cc2)C1c1cccs1 (stereo not drawn) [C107, 2-(2-methoxyethyl)-1-oxo-N-(4-(piperidin-1-yl)phenyl)-3-(thiophen-2-yl)-1,2,3,4-tetrahydroisoquinoline-4-carboxamide]	0.12 µg/mL (≈ 0.245 µM)	23.5 µg/mL (≈ 47.9 µM)	
COCCN1C(=O)c2ccccc2C(C(=O)Nc2cccc(NC(C)=O)c2)C1c1cccs1 (stereo not drawn) [C108, N-(3-acetamidophenyl)-2-(2-methoxyethyl)-1-oxo-3-(thiophen-2-yl)-1,2,3,4-tetrahydroisoquinoline-4-carboxamide]	3.71 µg/mL (≈ 8 µM)	77.3 µg/mL (≈ 167 µM)	
COCCN1C(=O)c2ccccc2C(C(=O)Nc2cccc(C(F)(F)F)c2)C1c1cccs1 (stereo not drawn) [C110, 2-(2-methoxyethyl)-1-oxo-3-(thiophen-2-yl)-N-(3-(trifluoromethyl)phenyl)-1,2,3,4-tetrahydroisoquinoline-4 carboxamide]	1.45 µg/mL (≈ 3.06 µM)	79.3 µg/mL (≈ 167 µM)	
COCCN1C(=O)c2ccccc2C(C(=O)Nc2ccc(Cl)c(OC)c2)C1c1cccs1 (stereo not drawn) [C111, N-(4-chloro-3-methoxyphenyl)-2-(2-methoxyethyl)-1-oxo-3-(thiophen-2-yl)-1,2,3,4-tetrahydroisoquinoline-4-carboxamide]	0.17 µg/mL (≈ 0.361 µM)	86.7 µg/mL (≈ 184 µM)	
COCCN1C(=O)c2ccccc2C(C(=O)Nc2ccc3c(c2)OCCO3)C1c1cccs1 (stereo not drawn) [C117, N-(2,3-dihydrobenzo[b][1,4]dioxin-6-yl)-2-(2-methoxyethyl)-1-oxo-3-(thiophen-2-yl)-1,2,3,4-tetrahydroisoquinoline-4-carboxamide]	0.36 µg/mL (≈ 0.775 µM)	81.9 µg/mL (≈ 176 µM)	
